From the NIST ThermoML archive (doi:10.1021/je050162g)

Experiment: xn = mol fraction of the nth substance listed
Settings: 101 kPa, Liquid; for viscosity: Capillary tube (Ostwald / Ubbelohde) method; for excess molar volume: Direct dilatometry; for speed of sound: Linear variable-path acoustic interferometer

C=COC(C)=O [vinyl acetate] + Cc1ccc(C)cc1
Settings	excess molar volume, 303.15 K [m3/mol]	excess molar volume, 308.15 K [m3/mol]	excess molar volume, 313.15 K [m3/mol]	speed of sound, 303.15 K [m/s]	speed of sound, 308.15 K [m/s]	speed of sound, 313.15 K [m/s]	viscosity, 303.15 K [mPa·s]	viscosity, 308.15 K [mPa·s]	viscosity, 313.15 K [mPa·s]
x2 = 0	0	0	0	1095.9	1072.5	1055.7	0.384	0.361	0.332
x2 = 0.0767	-4.3e-08	2e-08	4.2e-08	1108.1	1084.9	1067.7	0.4	0.367	0.333
x2 = 0.1577	-6.8e-08	3.8e-08	7.2e-08	1122.6	1098.2	1080.6	0.415	0.376	0.341
x2 = 0.2421	-7.3e-08	5.7e-08	9.8e-08	1138.8	1112.3	1094.7	0.428	0.387	0.352
x2 = 0.3332	-7.2e-08	7.3e-08	1.21e-07	1156.6	1128	1110.6	0.44	0.399	0.365
x2 = 0.43	-6.1e-08	8.9e-08	1.41e-07	1175.5	1145.6	1128.6	0.453	0.414	0.38
x2 = 0.5319	-5.1e-08	9.6e-08	1.48e-07	1195.4	1165.3	1148.8	0.469	0.432	0.399
x2 = 0.6371	-2.7e-08	9.2e-08	1.4e-07	1215.8	1187.3	1171	0.489	0.453	0.422
x2 = 0.7488	-4e-09	7.6e-08	1.13e-07	1237.4	1211.9	1196.4	0.512	0.478	0.447
x2 = 0.8654	6e-09	4.4e-08	7.2e-08	1259.7	1238.6	1224.5	0.538	0.504	0.475
